Patent US20110077270A1, “Compositions and Methods for Treating Ocular Inflammation with Lower Risk of Increased Intraocular Pressure” (priority 2009, published 2011)
Values joined by “and” are separate entries in the source; they are usually repeats but may differ in a detail not shown here. Equal values may be shown once.

Legend:
Assay type in all cases: in vivo
[1] = system: rabbit paracentesis model; experiment: Clinical evaluation (slit lamp clinical score), rabbit paracentesis model; design: key to Clinical Score −180 min / Clinical Score −5 min / Clinical Score +115 min: 0: normal; 1: discrete dilatation of iris and conjunctival vessels; 2: moderate dilatation of iris and conjunctival vessels; 3: intense iridal hyperemia with flare in the anterior chamber; 4: intense iridal hyperemia with flare in the anterior chamber and presence of fibrinous exudates; conditions: for Clinical Score −5 min: 5 min before first paracentesis; for Clinical Score −5 min / Clinical Score +115 min / Clinical Score −180 min: individual eye; for Clinical Score +115 min: 5 min before second paracentesis; for Clinical Score −180 min: basal
[2] = system: MPO activity in iris-ciliary body; experiment: Myeloperoxidase (MPO) activity in iris-ciliary body, rabbit paracentesis model; conditions: for MPO Unit/g: iris-ciliary body samples collected after the second paracentesis, individual eye samples; for MPO activity in iris-ciliary body, Mean: after second paracentesis, group mean
Description: (§1) Each rabbit was placed in a restraint device and tagged with the alphanumeric code. The formulations were instilled (50 μl) into the conjunctival sac of both eyes 180, 120, 90 and 30 min before the first paracentesis; then 15, 30, 90 min after the first paracentesis. To perform the first paracentesis the animals were anaesthetized by intravenous injection of 5 mg/kg Zoletil® (Virbac; 2.5 mg/kg tiletamine HCl and 2.5 mg/kg zolazepam HCl) and one drop of local anesthetic (Novesina®, Novartis) was administered to the eye. Anterior chamber paracentesis was performed with a 26 G needle attached to a tuberculin syringe; the needle was introduced into the anterior chamber through the cornea, taking care not to damage the tissues. Two hours after the first paracentesis, the animals were sacrificed with 0.4 ml Tanax® (Intervet International B.V.) and the second paracentesis was performed. About 100 μl of aqueous humor were removed at the second paracentesis. Aqueous humor was immediately split in four aliquots and stored at −80° C. until analysis. Then both eyes were enucleated and the iris-ciliary body was carefully excised, placed in polypropylene tubes, and stored at −80° C. until analysis.
The activity of MPO was measured as previously described by Williams et al.[5] The iris-ciliary bodies were carefully dried, weighed and immersed in 1 ml of hexa-decyl-trimethyl-ammonium bromide solution. Then, the samples were sonicated for 10 sec on ice by a ultrasound homogenizer (HD 2070, Bandelin electronic), freeze-thawed three times, sonicated for 10 sec and centrifuged at 14,000 g for 10 min to remove cellular debris. An aliquot of the supernatant ([…] was diluted to 3 ml with the o-dianisidine 2HCl/H2O2 solution. The change in absorbance at 460 nm was continuously monitored for 5 min by a spectrophotometer (UV/Vis Spectrometer Lambda EZ 201; Perkin Elmer). The slope of the line (Δ/min) was determined for each sample and used to calculate the number of units of MPO in the tissue as follows:
were ε=11.3 mM^−1. Values were expressed as units of MPO/g of tissue.

[3] = system: leukocytes (PMN) in aqueous humor; experiment: Leukocytes (PMN) measurement in aqueous humor, rabbit paracentesis model; conditions: second paracentesis; for PMN numbers in aqueous humor: individual eye
Description: as §1
For the determination of the number of leukocytes we used a haemocytometer (Improved Neubauer Chamber; Bright-line, Hausser Scientific) and a Polyvar 2 microscope (Reichert-Jung).

[4] = system: PGE2 in the aqueous humor; experiment: Prostaglandin E2 (PGE2) measurement in aqueous humor, rabbit paracentesis model; conditions: second paracentesis; for PGE2 level in aqueous humor, Mean: group mean; for PGE2 level in aqueous humor: individual eye
Description: as §1
For the quantitative determination of PGE2 in the aqueous humor we used the PGE2 Immunoassay kit (R&D Systems; Cat. No. KGE004; Lot. No. 240010). Eleven microliters or 16 μl of aqueous humor were diluted to 110 μl or 160 μl with the calibrator diluent solution provided with the kit. One hundred microliters of samples and of standards were load into a 96-well plate and recorded in a plate layout. Samples were treated following the assay procedure described in the kit. A microplate reader (GDV, Italy; model DV 990 B/V6) set at 450 nm (wavelength correction at 540 nm) was used for making the calibration and analyzing the samples.

[5] = system: protein concentration in the aqueous humor; experiment: Protein measurement in aqueous humor, rabbit paracentesis model; conditions: second paracentesis; for Protein level in aqueous humor, Mean: group mean; for Protein level in aqueous humor: individual eye
Description: as §1
For protein concentration determination in the aqueous humor we used the Protein Quantification Kit (Fluka; Cat. No. 77371; Lot. No. 1303129). Five microliters of aqueous humor were diluted to 100 μl with water. Twenty microliters of samples and of standards were load into a 96-well plate and recorded in a plate layout. Samples were treated following the assay procedure described in the kit. A microplate reader (GDV, Italy; model DV 990 B/V6) set at 670 nm was used for making the calibration and analyzing the samples.

[6] = system: rabbit paracentesis model; experiment: Pupillary diameter measurement, rabbit paracentesis model; conditions: individual eye; for Pupillary diameter T1: −180 min: 50 μl drops, basal; for Pupillary diameter T2: −5 min: 5 min before first paracentesis; for Pupillary diameter T3: +115 min: 5 min before second paracentesis; for Pupillary diameter Δ(T3 − T1): +115 min minus −180 min
Description: as §1
The pupillary diameter of both eyes was measured with a Castroviejo caliper 180 min and 5 min before the first paracentesis and 5 min before the second paracentesis.

[7] = 0.5% topical formulation, +115 min

## CC(C(=O)O)c1ccc(-c2ccccc2)c(F)c1 (centres unmarked) [F, flurbiprofen, reference compound]
[1]; 0.03% topical formulation
  Clinical Score −5 min: 0
  Clinical Score +115 min: 2
  Clinical Score −180 min: 0
[1]; 0.03% topical formulation, +115 min
  Percentage of eyes with clinical score 2: 100%
[1]; 0.03% topical formulation, −5 min
  Percentage of eyes with clinical score 0: 100%
[1]; 0.03% topical formulation, −180 min (basal)
  Percentage of eyes with clinical score 0: 100%
[2]; 0.03% F
  MPO Unit/g: 1.10 Unit/g and 1.70 Unit/g and 0.34 Unit/g and 0.75 Unit/g and 0.74 Unit/g and 0.63 Unit/g and 0.73 Unit/g and 1.27 Unit/g
[2]; 0.03% topical formulation
  MPO, p vs CTR: < 0.01
  MPO activity in iris-ciliary body, Mean: 0.906 MPO Unit/g
[3]; 0.03% topical formulation
  PMN numbers in aqueous humor: 50 number/μl and 40 number/μl (2×) and 20 number/μl (2×) and 10 number/μl and 30 number/μl
[4]; 0.03% topical formulation
  PGE2 level in aqueous humor, Mean: 1.189 ng/mL
  PGE2 level in aqueous humor: 1.04 ng/ml and 0.75 ng/ml and 0.85 ng/ml and 1.11 ng/ml and 2.11 ng/ml (2×) and 0.93 ng/ml and 0.61 ng/ml
[5]; 0.03% topical formulation
  Protein level in aqueous humor, Mean: 20.910 mg/mL
  Protein level in aqueous humor: 20.78 mg/mL and 28.80 mg/mL and 23.41 mg/mL and 20.21 mg/mL and 17.53 mg/mL and 15.12 mg/mL and 20.52 mg/mL
[6]; 0.03% topical formulation
  Pupillary diameter T1: −180 min: 5.0 mm (2×) and 7.0 mm and 6.0 mm (4×) and 5.5 mm
  Pupillary diameter T2: −5 min: 6.0 mm (3×) and 6.5 mm (3×) and 7.0 mm and 5.5 mm
  Pupillary diameter T3: +115 min: 4.0 mm and 3.5 mm and 5.5 mm (2×) and 5.0 mm (2×) and 4.5 mm and 6.0 mm
  Pupillary diameter Δ(T3 − T1): −1.0 mm (3×) and −1.5 mm (3×) and 0.0 mm (2×)

## CCOC(=O)O[C@]1(C(=O)OCCl)CC[C@H]2[C@@H]3CCC4=CC(=O)C=C[C@]4(C)[C@H]3[C@@H](O)C[C@@]21C [LE, loteprednol etabonate, reference compound]
[1]; 0.5% topical formulation
  Clinical Score −5 min: 0
  Clinical Score +115 min: 2 (2×) and 1 (6×)
  Clinical Score −180 min: 0
[1]; [7]
  Percentage of eyes with clinical score 1: 75%
  Percentage of eyes with clinical score 2: 25%
[1]; 0.5% topical formulation, Kruskal-Wallis, Dunn
  Clinical score, p versus CTR: < 0.05
[1]; 0.5% topical formulation, −5 min
  Percentage of eyes with clinical score 0: 100%
[1]; 0.5% topical formulation, −180 min (basal)
  Percentage of eyes with clinical score 0: 100%
[2]; 0.5% LE
  MPO Unit/g: 0.30 Unit/g and 0.51 Unit/g and 0.81 Unit/g and 0.60 Unit/g and 0.73 Unit/g and 1.01 Unit/g
[2]; 0.5% topical formulation
  MPO activity in iris-ciliary body, Mean: 0.661 MPO Unit/g
[3]; 0.5% topical formulation, group mean
  PMN numbers in aqueous humor, Mean: 28.333 number/μl
[3]; 0.5% topical formulation
  PMN numbers in aqueous humor: 40 number/μl (2×) and 20 number/μl (3×) and 30 number/μl
[4]; 0.5% topical formulation
  PGE2 level in aqueous humor, Mean: 0.672 ng/mL
  PGE2 level in aqueous humor: ^2N/D and 0.23 ng/ml and 0.68 ng/ml and 1.10 ng/ml
[5]; 0.5% topical formulation
  Protein level in aqueous humor, Mean: 33.905 mg/mL
  Protein level in aqueous humor: 36.14 mg/mL and 39.10 mg/mL and 34.69 mg/mL and 26.10 mg/mL and 26.30 mg/mL and 28.16 mg/mL and 40.90 mg/mL and 39.85 mg/mL
[6]; 0.5% topical formulation
  Pupillary diameter T1: −180 min: 6.0 mm (3×) and 6.5 mm (5×)
  Pupillary diameter T2: −5 min: 6.0 mm (3×) and 6.5 mm (5×)
  Pupillary diameter T3: +115 min: 4.5 mm and 5.0 mm (2×) and 5.5 mm (2×) and 6.0 mm (3×)
  Pupillary diameter Δ(T3 − T1): −1.5 mm (2×) and −1.0 mm (3×) and 0.0 mm and −0.5 mm (2×)
